Assay results reported in patent US4515708A, “Corrosion inhibitors” (Exxon Research & Engineering Co., priority 1982, dated 1985).
Structures can show the parent of a compound that is named as a salt. Where two headings read alike, the source gives them in different places.

How the values were obtained:
[1] = Solubility Test (35 wt% solution in isopropylalcohol shaken with water, brine or heptane); type: physicochemical; settings: for SOLUBILITY IN: Brine: 0.3 ml of 35 wt% IPA solution in 10 ml 5 wt% NaCl solution
Description: The active material under test was made up into a 35 wt% solution in isopropylalcohol (IPA). 0.3 ml of this solution was shaken with 10 ml of each of the liquids in which solubility is to be tested: water, 5 wt% NaCl solution (brine) and heptane. The mixture was observed after 30 minutes and 24 hours.

[2] = Corrosion Test 4 (dynamic wheel test; 3 wt% brine + Mentor 28; H2S); settings: 24 h, 70° C.
Description: (§1) For each compound three mild steel coupons (approximately 100 mm×12 mm×1.5 mm) were tested at each concentration. Each was contacted in a 250 ml bottle with 200 ml of a test fluid either saturated with a carbon dioxide at 20° C. or containing 100 ppm hydrogen sulphide or having both CO2 and H2 S present in those amounts. The test fluid was treated with a 30% aqueous solution of the compound under test at 2, 10, 50 and 250 ppm except where indicated to the contrary. The coupon was subjected to a dynamic wheel test in which the bottle was mounted radially on the periphery of 650 mm diameter wheel which was rotated at about 40 rpm for 24 hours at 70° C. The weight loss was obtained, and also measured in a control experiment where no inhibitor was present. From this the % protection was calculated as % reduction in weight loss.
(§2) Test fluid: 100 ml 3 wt% brine+100 ml Mentor 28
Corrosives: 100 ppm H2 S (prior nitrogen purge)

[3] = Corrosion Test 1 (dynamic wheel test; 3 wt% brine/Mentor 28; CO2 + H2S); settings: for % Protection: 24 h, 70° C.
Description: as §1
Test fluid: 100 ml 3 wt% brine/100 ml Mentor 28 (Mentor®28 is a depolarised kerosene available from Exxon Chemical Company)
(§3) Corrosives: Saturated CO2 +100 ppm H2 S

[4] = Corrosion Test 2 (dynamic wheel test; 3 wt% brine; CO2 + H2S); settings: 24 h, 70° C.
Description: as §1
Test Fluid: 200 ml 3 wt% brine
as §3

[5] = Emulsion Test (3 wt% brine / heptane); type: physicochemical; set-up: Emulsion thickness after 30 mins: unit not given here; settings: for Time to break emulsion: 1 ml of 35 wt% IPA solution, 50 ml 3 wt% brine, 50 ml heptane; for Appearance after 30 mins, hydrocarbon: hydrocarbon layer; for Appearance after 30 mins, hydrocarbon / Appearance after 30 mins, water / Emulsion thickness after 30 mins: 50 ml 3 wt% brine/50 ml heptane; for Appearance after 30 mins, water: water layer
Description: 1 ml of the solutions used for Test A was shaken with 50 ml of 3 wt% brine and 50 ml of heptane for 1 minute in a 150 ml bottle. The emulsion was observed, and the time noted for the emulsion to break and form a clean interface with clear liquid layers. If at 30 minutes this had not occurred, the appearance was recorded together with the thickness of any persisting emulsion.

[6] = Corrosion Test 3 (dynamic wheel test; 3 wt% brine + Mentor 28; CO2 only); settings: 24 h, 70° C.
Description: as §1, §2
Corrosives: Saturated CO2 only

[7] = 0.3 ml of 35 wt% IPA solution in 10 ml heptane, 30 minutes and 24 hours
[8] = 0.3 ml of 35 wt% IPA solution in 10 ml water, observed after 30 minutes and 24 hours
[9] = 2 ppm, * active material added as undiluted compound
[10] = 10 ppm, * active material added as undiluted compound
[11] = 50 ppm, * active material added as undiluted compound
[12] = 250 ppm, * active material added as undiluted compound

SMILES | SOLUBILITY IN: Heptane [1, 7] | SOLUBILITY IN: Water [1, 8] | % Protection ([3]; 2 ppm, 30% solution) [%] | % Protection ([3]; 10 ppm, 30% solution) [%] | % Protection ([3]; 50 ppm, 30% solution) [%] | % Protection ([3]; 250 ppm, 30% solution) [%] | % Protection ([4]; 2 ppm) [%] | % Protection ([4]; 10 ppm) [%] | % Protection ([4]; 50 ppm) [%] | % Protection ([4]; 250 ppm) [%] | Time to break emulsion [5] [min] | Appearance after 30 mins, hydrocarbon [5] | Appearance after 30 mins, water [5] | other results
CCCCCCCCCCNCCc1ccccn1 [Example 3] | S | S | 13 | 63 | 82 | 99 | 7 | 37 | 91 | 97 | > 30 | hazy | hazy | % Protection ([2]; 2 ppm): 0%; % Protection ([2]; 10 ppm): 42%; % Protection ([2]; 50 ppm): 65%; % Protection ([2]; 250 ppm): 76%
CCCCCCCCCCCCCCCCNCCc1ccncc1 [Example 27] | S | S | 39 | 69 | 84 | 96 | 40 | 47 | 84 | 94 | > 30 | clear | hazy | Emulsion thickness after 30 mins [5]: 3.0
NCCCNCCc1ccccn1 [Example 14] | S | S |  |  |  |  | 26 | 64 | 74 | 90 | > 30 | clear | hazy | SOLUBILITY IN: Brine ([1]; 30 minutes and 24 hours): S; % Protection [3, 9]: 47%; % Protection [3, 10]: 70%; % Protection [3, 11]: 70%; % Protection [3, 12]: 92%
NCCNCCNCCNCCc1ccccn1 [Example 16] | S/D | S | 32 | 72 | 81 | 89 | 37 | 59 | 81 | 89 | 10 | clear | clear | SOLUBILITY IN: Brine ([1]; 30 minutes and 24 hours): S; % Protection ([2]; 2 ppm): 10%; % Protection ([2]; 10 ppm): 48%; % Protection ([2]; 50 ppm): 56%; % Protection ([2]; 250 ppm): 61%
CCc1ccccn1 [2-ethylpyridine.HCL, reference compound] |  |  | 10 | 10 | 24 | 18 |  |  |  |  |  |  |  | 
CCCCCCCCCCCCNCCc1ccccn1 [Example 21, N-dodecyl-β-(2-pyridyl)-ethylamine] |  |  | 17 | 51 | 86 | 93 |  |  |  |  |  |  |  | corrosion protection compared with Example 4 ([3]; after addition of acetic acid): substantially identical protection to that seen in Example 4; corrosion protection compared with Example 4 ([3]; unsalified product): inferior corrosion protection to Example 4
NCCNCCc1ccccn1 [Example 13] | S | S |  |  |  |  | 40 | 42 | 74 | 89 | > 30 | clear | hazy | % Protection ([6]; 2 ppm): 0%; % Protection ([6]; 10 ppm): 10%; % Protection ([6]; 50 ppm): 19%; % Protection ([6]; 250 ppm): 23%; SOLUBILITY IN: Brine ([1]; 30 minutes and 24 hours): S; % Protection ([2]; 10 ppm): 40%; % Protection ([2]; 250 ppm): 57%; % Protection [3, 9]: 43%; % Protection [3, 10]: 67%; % Protection [3, 11]: 82%; % Protection [3, 12]: 92%
c1ccc(CNCCc2ccncc2)cc1 [Example 29] |  |  | 25 | 56 | 60 | 67 |  |  |  |  | 1 | clear | clear | 
CCCCCCCCCCCCCCNCCc1ccccn1 [Example 5] | S | S | 0 | 43 | 46 | 90 | 3 | 48 | 93 | 94 | > 30 | hazy | hazy | Emulsion thickness after 30 mins [5]: 0.5
CCCCCCCCCCNCCc1ccncc1 [Example 24] | S | S | 58 | 80 | 88 | 95 |  |  |  |  | > 30 | hazy | hazy | 
CCc1ccncc1 [4-ethylpyridine.HCL, reference compound] |  |  | 2 | 5 | 13 | 16 |  |  |  |  |  |  |  | 
CCc1ccccn1 [2-ethylpyridine, reference compound] |  |  | 3 | 7 | 16 | 23 |  |  |  |  |  |  |  | 
CCCCCCCCCCCCNCCc1ccccn1 [21 acetate salt] |  |  | 21 | 74 | 94 | 96 |  |  |  |  |  |  |  | 
CCCCCCCCNCCc1ccccn1 [Example 2] |  |  |  |  |  |  | 37 | 34 | 84 | 94 | 5 | clear | clear | SOLUBILITY IN: Heptane [1]: S; % Protection [3, 9]: 50%; % Protection [3, 10]: 82%; % Protection [3, 11]: 85%; % Protection [3, 12]: 89%
CCCCCCCCNCCc1ccncc1 [Example 23] |  |  | 38 | 49 | 83 | 92 |  |  |  |  | 10 | clear | clear | SOLUBILITY IN: Heptane [1]: S; SOLUBILITY IN: Water [1]: S
CCCCCCCCCCCCCCCCNCCc1ccccn1 [Example 6] | S | S | 7 | 72 | 89 | 98 | 20 | 41 | 93 | 97 | > 30 | hazy | hazy | % Protection ([2]; 2 ppm): 0%; % Protection ([2]; 10 ppm): 21%; % Protection ([2]; 50 ppm): 58%; % Protection ([2]; 250 ppm): 70%; Emulsion thickness after 30 mins [5]: 1.0
CCCCCCCCCCCCCCNCCc1ccncc1 [Example 26] | S | S |  |  |  |  |  |  |  |  | > 30 | clear | hazy | Emulsion thickness after 30 mins [5]: 1.0
NCCc1ccccn1 [2-aminoethyl pyridine, reference compound] |  |  | 0 | 45 | 55 | 86 |  |  |  |  |  |  |  | 
NCCNCCc1ccncc1 [Example 32] |  |  |  |  |  |  |  |  |  |  | > 30 | clear | hazy | 
NCCCNCCc1ccncc1 [Example 33] |  | S |  |  |  |  |  |  |  |  | 1 | clear | clear | SOLUBILITY IN: Brine ([1]; 30 minutes and 24 hours): S
